The values below come from patent US20100184815A1 (priority 2008, published 2010).

Holding throughout (type): cell-based
The target in assay [1] is T1, Full Length hPPARβ/δ (Homo sapiens, UniProt Q03181).
T1 construct: Full Length; expressed in transfected cells; host or cells: Cos cells
T1 sequence (Q03181 1-441): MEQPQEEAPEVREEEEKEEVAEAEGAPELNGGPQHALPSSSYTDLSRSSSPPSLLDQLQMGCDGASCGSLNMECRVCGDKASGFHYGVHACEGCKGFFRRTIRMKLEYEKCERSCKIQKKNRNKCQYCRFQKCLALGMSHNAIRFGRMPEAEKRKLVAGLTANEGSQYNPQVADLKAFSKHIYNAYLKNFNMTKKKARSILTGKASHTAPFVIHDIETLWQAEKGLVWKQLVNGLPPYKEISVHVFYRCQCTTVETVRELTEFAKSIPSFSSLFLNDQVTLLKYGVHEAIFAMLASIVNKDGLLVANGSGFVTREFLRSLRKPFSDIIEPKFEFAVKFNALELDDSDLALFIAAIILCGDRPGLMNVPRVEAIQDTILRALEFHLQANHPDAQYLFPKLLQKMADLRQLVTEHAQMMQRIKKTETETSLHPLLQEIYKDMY
The experiment in a line: Full length hPPARβ/δ transfection assay. Conditions: full length receptor; scale 1-5; read-out: Full Length hPPAR β/δ EC50 (scaled number). The protocol:
(§1) Transient transfection assays. Cos cells were seeded in 60-mm dishes at a density of 5.5×10^5 cells/dish in Dulbecco's modified Eagle's medium (DMEM) supplemented with 10% fetal calf serum (FCS) and incubated at 37° C. for 24 hours before transfection. Cells were transfected in Opti-MEM (Gibco; Invitrogen, Carlsbad, Calif.) without FCS for 3 hours at 37° C., using polyethylenimine, with reporter and expression plasmids. The plasmid pBluescript (Stratagene, La Jolla, Calif.) was used as carrier DNA to set the final amount of DNA to 5.5 μg/dish. The pCMV-b-galactosidase expression plasmid was cotransfected as a control for transfection efficiency. Transfection was stopped by the addition of DMEM supplemented with 10% FCS, and cells were then incubated at 37° C. After 16 hours, cells were trypsinized and seeded in 96-well plates at the density of 2×10^4 cells/well and incubated for 6 hours in 10% FCS-containing DMEM. Cells were then incubated for 24 hours in DMEM containing 0.2% FCS and increasing concentrations of the compound tested or vehicle (DMSO). At the end of the experiment, cells were washed once with ice-cold PBS, lysed and the luciferase and b-galactosidase assays were performed in a luminometer and spectrophotomer. Transfection efficiencies were normalized with the b-galactosidase activity assay. Half-maximal effective concentration (EC50) was estimated using Prism software (GraphPad). All transfection experiments were performed at least three times.
(§2) In the following tables, proprietary compound EC50 values for hPPAR α, β, δ and γ are shown. The EC50 value is the concentration of a drug that induces a response halfway between the baseline and maximum, and is commonly used as a measure of drug potency. EC50 values are reported on a scale of 1 through 5, wherein the value scale is defined for each receptor as follows: […]

For assay [2], the target named is T2, Gal-4 hPPARα (Homo sapiens, UniProt Q07869).
T2 construct: Plasmids pGal4-hPPARα, pGal4-hPPARγ, pGal4-hPPARδ and pG5-TK-pGL3 were constructed as previously described by Staels, Bart, et al., Nature 1998 Jun; 25
T2 sequence (Q07869 200-468 limits assumed): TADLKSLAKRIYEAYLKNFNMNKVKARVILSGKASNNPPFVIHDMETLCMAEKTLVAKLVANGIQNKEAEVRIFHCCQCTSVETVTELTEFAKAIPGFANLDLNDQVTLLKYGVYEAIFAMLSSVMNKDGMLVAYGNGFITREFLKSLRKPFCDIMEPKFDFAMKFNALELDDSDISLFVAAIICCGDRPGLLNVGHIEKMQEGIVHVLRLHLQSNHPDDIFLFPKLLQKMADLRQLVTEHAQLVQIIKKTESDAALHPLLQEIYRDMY
The experiment in a line: Gal4-hPPARα transient transfection reporter assay in Cos cells. Conditions: luciferase reporter, 24 hours with compound, scale 1-5, read-out: Gal-4 hPPAR α EC50 (scaled number). In short, it runs like this:
(§3)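 Cos cells transiently co-transfected with Gal4-hPPAR expression plasmid, pG5-TK-pGL3 luciferase reporter and β-galactosidase control, then treated 24 h with increasing compound concentrations in DMEM containing 0.2% FCS. Luciferase normalised to β-galactosidase; EC50 from curve fit, at least three experiments.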

The target in assay [3] is T3, Full Length hPPARα (Homo sapiens, UniProt Q07869).
T3 construct: Full Length; expressed in transfected cells; host or cells: Cos cells
T3 sequence (Q07869 1-468): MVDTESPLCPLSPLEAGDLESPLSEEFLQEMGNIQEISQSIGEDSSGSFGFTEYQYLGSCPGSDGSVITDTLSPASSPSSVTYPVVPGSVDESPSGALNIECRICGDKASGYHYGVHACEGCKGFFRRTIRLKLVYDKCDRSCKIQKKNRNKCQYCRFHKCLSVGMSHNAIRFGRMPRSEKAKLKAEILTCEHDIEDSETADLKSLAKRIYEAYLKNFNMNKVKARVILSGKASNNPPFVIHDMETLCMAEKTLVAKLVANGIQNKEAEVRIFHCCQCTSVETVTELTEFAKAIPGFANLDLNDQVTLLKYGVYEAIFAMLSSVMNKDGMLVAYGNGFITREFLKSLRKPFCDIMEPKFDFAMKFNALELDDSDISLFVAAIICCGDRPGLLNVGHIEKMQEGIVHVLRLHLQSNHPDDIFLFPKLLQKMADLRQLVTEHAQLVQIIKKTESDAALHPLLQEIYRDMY
The assay can be described thus: Full length hPPARα transfection assay. As to conditions: full length receptor; read-out: Full Length hPPAR α EC50 (scaled number). The protocol:
as §1, §2

Assay [4] deals with T4, Gal-4 hPPARγ (Homo sapiens, UniProt P37231).
T4 construct: Plasmids pGal4-hPPARα, pGal4-hPPARγ, pGal4-hPPARδ and pG5-TK-pGL3 were constructed as previously described by Staels, Bart, et al., Nature 1998 Jun; 25
T4 sequence (P37231 238-505 limits assumed): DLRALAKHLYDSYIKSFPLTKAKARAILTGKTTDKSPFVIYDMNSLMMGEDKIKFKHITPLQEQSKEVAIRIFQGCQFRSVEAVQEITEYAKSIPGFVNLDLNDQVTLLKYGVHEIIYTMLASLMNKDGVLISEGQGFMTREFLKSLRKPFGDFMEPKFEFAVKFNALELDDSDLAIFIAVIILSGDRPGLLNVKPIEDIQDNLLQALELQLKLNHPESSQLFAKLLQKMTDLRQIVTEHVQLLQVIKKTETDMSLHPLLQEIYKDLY
The experiment in a line: Gal4-hPPARγ transient transfection reporter assay in Cos cells. Conditions: luciferase reporter, 24 hours with compound, scale 1-5, read-out: Gal-4 hPPAR γ EC50 (scaled number). In short, it runs like this: as §3
Background: A reporter such as luciferase makes a cellular process visible.

Assay [5] addresses T5, Gal-4 hPPARβ/δ (Homo sapiens, UniProt Q03181).
T5 construct: Plasmids pGal4-hPPARα, pGal4-hPPARγ, pGal4-hPPARδ and pG5-TK-pGL3 were constructed as previously described by Staels, Bart, et al., Nature 1998 Jun; 25
T5 sequence (Q03181 171-441 limits assumed): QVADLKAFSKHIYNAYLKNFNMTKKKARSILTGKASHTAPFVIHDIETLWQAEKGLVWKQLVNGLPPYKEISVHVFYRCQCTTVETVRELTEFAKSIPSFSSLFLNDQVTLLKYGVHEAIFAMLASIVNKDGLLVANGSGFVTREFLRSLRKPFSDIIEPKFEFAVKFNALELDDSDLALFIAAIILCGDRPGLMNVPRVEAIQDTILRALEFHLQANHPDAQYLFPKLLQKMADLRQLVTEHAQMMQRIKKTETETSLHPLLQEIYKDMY
The assay can be described thus: Gal4-hPPARδ transient transfection reporter assay in Cos cells. Conditions: luciferase reporter, 24 hours with compound, scale 1-5, read-out: Gal-4 hPPAR β/δ EC50 (scaled number). The method in brief:
as §3

The target of assay [6] is T6, Full Length hPPARγ (Homo sapiens, UniProt P37231).
T6 construct: Full Length; expressed in transfected cells; host or cells: Cos cells
T6 sequence (P37231 1-505): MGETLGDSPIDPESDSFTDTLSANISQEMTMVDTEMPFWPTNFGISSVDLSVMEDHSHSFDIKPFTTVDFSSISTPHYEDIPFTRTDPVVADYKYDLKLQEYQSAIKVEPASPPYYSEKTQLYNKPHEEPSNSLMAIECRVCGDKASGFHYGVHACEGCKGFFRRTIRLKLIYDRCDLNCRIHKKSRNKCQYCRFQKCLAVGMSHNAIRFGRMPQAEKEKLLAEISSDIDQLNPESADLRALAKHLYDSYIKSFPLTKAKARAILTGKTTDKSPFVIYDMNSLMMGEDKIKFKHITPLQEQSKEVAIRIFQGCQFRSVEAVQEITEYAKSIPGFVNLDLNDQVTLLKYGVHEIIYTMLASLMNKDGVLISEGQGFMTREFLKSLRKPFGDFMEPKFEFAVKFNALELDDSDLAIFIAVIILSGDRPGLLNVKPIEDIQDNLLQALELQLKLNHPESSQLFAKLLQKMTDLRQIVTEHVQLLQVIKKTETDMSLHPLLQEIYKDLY
The assay can be described thus: Full length hPPARγ transfection assay. As to conditions: full length receptor; scale 1-5; read-out: Full Length hPPAR γ EC50 (scaled number). The procedure:
as §1, §2

In the case of `Cn1nc(-c2ccccc2)cc1COC(=O)c1ccc(SC(C)(C)C(=O)O)cc1` [Compound 1, 2-methyl-2-(4-(((1-methyl-3-phenyl-1H-pyrazol-5-yl)methoxy)carbonyl)phenylthio)propanoic acid], the EC50 was over 1000 nM in assay [1]; 1 to 50 nM in assay [2]; under 1 nM in assay [3]; over 1000 nM in assay [4]; over 1000 nM in assay [5]; 51 to 200 nM in assay [6].

As for `CC(C)c1ccc(-n2cc(COC(=O)c3ccc(SC(C)(C)C(=O)O)cc3)nn2)cc1` [Compound 56, 2-(4-(((1-(4-isopropylphenyl)-1H-1,2,3-triazol-4-yl)methoxy)carbonyl)phenylthio)-2-methylpropanoic acid], the EC50 is 51 to 200 nM in assay [2]; 1 to 50 nM in assay [3]; over 1000 nM in assay [4]; over 1000 nM in assay [5]; 201 to 999 nM in assay [6].

For `CCCn1c(COC(=O)c2ccc(OC(C)(C)C(=O)O)cc2)nn(Cc2ccc(OC(F)(F)F)cc2)c1=O` [Compound 168, 2-methyl-2-(4-(((5-oxo-4-propyl-1-(4-(trifluoromethoxy)benzyl)-4,5-dihydro-1H-1,2,4-triazol-3-yl)methoxy)carbonyl)phenoxy)propanoic acid], the EC50 in assay [2] is 201 to 999 nM; in assay [3], 51 to 200 nM; in assay [4], over 1000 nM; in assay [5], over 1000 nM; in assay [6], over 1000 nM.

As to `CCCn1c(COC(=O)c2ccc(OC(C)(C)C(=O)O)c(OC)c2)nn(Cc2ccc(C(C)(C)C)cc2)c1=O` [Compound 180, 2-(4-(((1-(4-tert-butylbenzyl)-5-oxo-4-propyl-4,5-dihydro-1H-1,2,4-triazol-3-yl)methoxy)carbonyl)-2-methoxyphenoxy)-2-methylpropanoic acid], the EC50 in assay [2] is 201 to 999 nM; in assay [3], under 1 nM; in assay [4], over 1000 nM; in assay [5], over 1000 nM.

For `CCCCCCn1c(COC(=O)c2ccc(OC(C)(C)C(=O)O)c(OC)c2)nn(Cc2ccc(C(C)(C)C)cc2)c1=O` [Compound 185, 2-(4-(((1-(4-tert-butylbenzyl)-4-hexyl-5-oxo-4,5-dihydro-1H-1,2,4-triazol-3-yl)methoxy)carbonyl)-2-methoxyphenoxy)-2-methylpropanoic acid], the EC50 in assay [2] was 1 to 50 nM; in assay [3] it was under 1 nM; in assay [4], over 1000 nM; in assay [5], over 1000 nM.

Take `CCCCCCCn1c(COC(=O)c2ccc(OC(C)(C)C(=O)O)c(OC)c2)nn(Cc2ccc(C(C)(C)C)cc2)c1=O` [Compound 212, 2-(4-(((1-(4-tert-butylbenzyl)-4-heptyl-5-oxo-4,5-dihydro-1H-1,2,4-triazol-3-yl)methoxy)carbonyl)-2-methoxyphenoxy)-2-methylpropanoic acid]: the EC50 in assay [2] was under 1 nM; in assay [3], under 1 nM; in assay [4], 51 to 200 nM; in assay [5], over 1000 nM; in assay [6], 51 to 200 nM.
